Measurements reported in patent EP2385948B1, “FUSED THIAZOLO AND OXAZOLO PYRIMIDINONES” (Torrent Pharmaceuticals Limited, priority 2009, dated 2011).
Structures can show the parent of a compound that is named as a salt.

System: erythropoietin
Experiment: In vitro erythropoietin induction (ELISA of cell culture supernatant)
Settings: Hep3B cell line, 200 uM, 16 hours, relative to vehicle control
Experimental: Hep3B cell line (ATCC HB8064) was employed. Induction of erythropoietin was carried out for the indicated dose of compounds for 16 hours duration. At the end of 16 hours, cell culture medium was collected and centrifuged to remove any debris. Supernatant obtained was analyzed for erythropoietin by ELISA (R&D systems, USA). The results were expressed as fold induction as compared to vehicle control.

Row | Compound | EPO fold induction
1 | {[7-(3,5-Dimethoxy-benzoyl)-2-hydroxy-4-oxo-5,6,7,8-tetrahydro-4H-9-thia-1,4a,7-triaza-fluorene-3-carbonyl]-amino}-acetic acid [Compound 41] | ++ (++ indicates 2-4 fold)

Same assay, conditions: Hep3B cell line, 200 uM, 16 hours, relative to vehicle control; Disodium salt, 960 min

Row | Compound | EPO fold induction
2 | CC1(C)CCc2c(sc3nc(O)c(C(=O)NCC(=O)O)c(=O)n23)C1 [Compound 80, [(2-Hydroxy-7,7-dimethyl-4-oxo-5,6,7,8-tetrahydro-4H-9-thia-1,4a-diaza-fluorene-3-carbonyl)-amino]-acetic acid, Disodium salt] | ++++ (++++ indicates 9-16fold)

Same assay, conditions: Homo sapiens, Hep3B, 16 h, read-out: EPO fold induction, Hep3B cell line, 12.5 uM, 16 hours, relative to vehicle control

Row | Compound | fold induction at 12.5 µM
3 | N#Cc1cccnc1N1CCc2c(sc3nc(O)c(C(=O)NCC(=O)O)c(=O)n23)C1 [Compound 36, {[7-(3-Cyano-pyridin-2-yl)-2-hydroxy-4-oxo-5,6,7,8-tetrahydro-4H-9-thia-1,4a,7-triaza-fluorene-3-carbonyl]-amino}-acetic acid] | < 2

Same assay, conditions: Homo sapiens, Hep3B, 16 h, read-out: EPO fold induction, Hep3B cell line, 200 uM, 16 hours, relative to vehicle control

Row | Compound | fold induction at 200 µM
4 | COc1ccc(C(=O)N2CCc3c(sc4nc(O)c(C(=O)NCC(=O)O)c(=O)n34)C2)cc1Cl [Compound 37, {[7-(3-Chloro-4-methoxy-benzoyl)-2-hydroxy-4-oxo-5,6,7,8-tetrahydro-4H-9-thia-1,4a,7-triaza-fluorene-3-carbonyl]-amino}-acetic acid] | 5 to 8
5 | CCCC1CCc2c(sc3nc(O)c(C(=O)NCC(=O)O)c(=O)n23)C1 (stereo not shown) [Compound 59, [(2-Hydroxy-4-oxo-7-propyl-5,6,7,8-tetrahydro-4H-9-thia-1,4a-diaza-fluorene-3-carbonyl)-amino]-acetic acid] | < 2
6 | O=C(NC1(C(=O)O)CCCC1)c1c(O)nc2sc3c(n2c1=O)CCCC3 [Compound 6, 1-[(2-Hydroxy-4-oxo-5,6,7,8-tetrahydro-4H-9-thia-1,4a-diaza-fluorene-3-carbonyl)-amino]-cyclopentanecarboxylic acid] | < 2
7 | O=C(O)CNC(=O)c1c(O)nc2sc3c(n2c1=O)CCS(=O)(=O)C3 [Compound 67, [(2-Hydroxy-4,7,7-trioxo-5,6,7,8-tetrahydro-4H-71ambda*6*,9-dithia-1,4a-diaza-fluorene-3-carbonyl)-amino]-acetic acid] | 2 to 4
8 | O=C(O)CNC(=O)c1c(O)nc2sc3c(n2c1=O)CCN(S(=O)(=O)c1ccc(OC(F)(F)F)cc1)C3 [Compound 19, {[2-Hydroxy-4-oxo-7-(4-trifluoromethoxy-benzenesulfonyl)-5,6,7,8-tetrahydro-4H-9-thia-1,4a,7-triaza-fluorene-3-carbonyl]-amino}-acetic acid] | 2 to 4
9 | O=C(O)CCNC(=O)c1c(O)nc2sc3c(n2c1=O)CCC3 [Compound 14, 3-[(2-Hydroxy-4-oxo-7,8-dihydro-4H,6H-cyclopenta[4,5]thiazolo[3,2-a]pyrimidine-3-carbonyl)-amino]-propionic acid] | 2 to 4
10 | CCOC(=O)N1CCc2c(sc3nc(O)c(C(=O)NCC(=O)O)c(=O)n23)C1 [Compound 2, 3-(Carboxymethyl-carbamoyl)-2-hydroxy-4-oxo-5,8-dihydro-4H,6H-9-thia-1,4a,7-triaza-fluorene-7-carboxylic acid ethyl ester] | 5 to 8
11 | O=C(O)CNC(=O)c1c(O)nc2sc3c(n2c1=O)CCN(C(=O)OCc1ccccc1)C3 [Compound 26, 3-(Carboxymethyl-carbamoyl)-2-hydroxy-4-oxo-5,8-dihydro-4H,6H-9-thia-1,4a,7-triaza-fluorene-7-carboxylic acid benzyl ester] | 9 to 16
12 | CC1(C)CCc2c(sc3nc(O)c(C(=O)NC(C)(C)C(=O)O)c(=O)n23)C1 [Compound 54, 2-[(2-Hydroxy-7,7-dimethyl-4-oxo-5,6,7,8-tetrahydro-4H-9-thia-1,4a-diaza-fluorene-3-carbonyl)-amino]-2-methyl-propionic acid] | < 2
13 | CCC1(CC)CCc2c(sc3nc(O)c(C(=O)NCC(=O)O)c(=O)n23)C1 [Compound 53, [(7,7-Diethyl-2-hydroxy-4-oxo-5,6,7,8-tetrahydro-4H-9-thia-1,4a-diaza-fluorene-3-carbonyl)-amino]-acetic acid] | < 2
14 | O=C(O)CNC(=O)c1c(O)nc2sc3c(n2c1=O)CCOC3 [Compound 65, [(2-Hydroxy-4-oxo-5,8-dihydro-4H,6H-7-oxa-9-thia-1,4a-diaza-fluorene-3-carbonyl)-amino]-acetic acid] | 5 to 8
15 | CC(C)(C)C1CCc2c(sc3nc(O)c(C(=O)NCCC(=O)O)c(=O)n23)C1 (stereo not shown) [Compound 15, 3-[(7-tert-Butyl-2-hydroxy-4-oxo-5,6,7,8-tetrahydro-4H-9-thia-1,4a-diaza-fluorene-3-carbonyl)-amino]-propionic acid] | < 2
16 | CC(C)(C)C(=O)N1CCc2c(sc3nc(O)c(C(=O)NCC(=O)O)c(=O)n23)C1 [Compound 20, {[7-(2,2-Dimethyl-propionyl)-2-hydroxy-4-oxo-5,6,7,8-tetrahydro-4H-9-thia-1,4a,7-triaza-fluorene-3-carbonyl]-amino}-acetic acid] | 5 to 8
17 | O=C(O)CNC(=O)c1c(O)nc2sc3c(n2c1=O)CCC(c1ccccc1)C3 (stereo not shown) [Compound 64, [(2-Hydroxy-4-oxo-7-phenyl-5,6,7,8-tetrahydro-4H-9-thia-1,4a-diaza-fluorene-3-carbonyl)-amino]-acetic acid] | < 2
18 | O=C(O)CNC(=O)c1c(O)nc2sc3c(n2c1=O)CCN(C(=O)c1ccc(OC(F)(F)F)cc1)C3 [Compound 22, {[2-Hydroxy-4-oxo-7-(4-trifluoromethoxy-benzoyl)-5,6,7,8-tetrahydro-4H-9-thia-1,4a,7-triaza-fluorene-3-carbonyl]-amino}-acetic acid] | 5 to 8
19 | O=C(O)CNC(=O)c1c(O)nc2sc3c(n2c1=O)CCC3 [Compound 11, [(2-Hydroxy-4-oxo-7,8-dihydro-4H,6H-cyclopenta[4,5]thiazolo[3,2-a]pyrimidine-3-carbonyl)-amino]-acetic acid] | 5 to 8
20 | O=C(O)CNC(=O)c1c(O)nc2sc3c(n2c1=O)CCN(Cc1ccc2c(c1)CCC2)C3 [Compound 39, [(2-Hydroxy-7-indan-5-ylmethyl-4-oxo-5,6,7,8-tetrahydro-4H-9-thia-1,4a,7-triaza-fluorene-3-carbonyl)-amino]-acetic acid] | 2 to 4
21 | CS(=O)(=O)N1CCc2c(sc3nc(O)c(C(=O)NCC(=O)O)c(=O)n23)C1 [Compound 3, [(2-Hydroxy-7-methanesulfonyl-4-oxo-5,6,7,8-tetrahydro-4H-9-thia-1,4a,7-triaza-fluorene-3-carbonyl)-amino]-acetic acid] | 2 to 4
22 | CC1(C)CCc2sc3nc(O)c(C(=O)NCC(=O)O)c(=O)n3c2C1 [Compound 60, [(2-Hydroxy-6,6-dimethyl-4-oxo-5,6,7,8-tetrahydro-4H-9-thia-1,4a-diaza-ftuorene-3-carbonyl)-amino]-acetic acid] | 5 to 8
23 | O=C(O)CNC(=O)c1c(O)nc2oc3c(n2c1=O)CCCC3 [Compound 57, [(2-Hydroxy-4-oxo-5,6,7,8-tetrahydro-4H-9-oxa-1,4a-diaza-fluorene-3-carbonyl)-amino]-acetic acid] | < 2
24 | O=C(O)CNC(=O)c1c(O)nc2sc3c(n2c1=O)CCCCCC3 [Compound 38, [(2-Hydroxy-4-oxo-5,6,7,8,9,10-hexahydro-4H-11-thia-1,4a-diaza-cycloocta[a]indene-3-carbonyl)-amino]-acetic acid] | 9 to 16
25 | C[C@@H](NC(=O)c1c(O)nc2sc3c(n2c1=O)CCC(C)(C)C3)C(=O)O [Compound 44, 2-[(2-Hydroxy-7,7-dimethyl-4-oxo-5,6,7,8-tetrahydro-4H-9-thia-1,4a-diaza-fluorene-3-carbonyl)-amino]-propionic acid (D-isomer)] | < 2
26 | CC(C)[C@H](NC(=O)c1c(O)nc2sc3c(n2c1=O)CCC(C)(C)C3)C(=O)O [Compound 43, 2-[(2-Hydroxy-7,7-dimethyl-4-oxo-5,6,7,8-tetrahydro-4H-9-thia-1,4a-diaza-fluorene-3-carbonyl)-amino]-3-methyl-butyric acid (L-isomer)] | < 2
27 | O=C(O)CNC(=O)c1c(O)nc2sc3c(n2c1=O)CCN(C(=O)c1ccc(F)cc1)C3 [Compound 16, {[7-(4-Fluoro-benzoyl)-2-hydroxy-4-oxo-5,6,7,8-tetrahydro-4H-9-thia-1,4a,7-triaza-fluorene-3-carbonyl]-amino}-acetic acid] | 5 to 8
28 | CC1CCc2c(sc3nc(O)c(C(=O)NCC(=O)O)c(=O)n23)C1 (stereo not shown) [Compound 58, [(2-Hydroxy-7-methyl-4-oxo-5,6,7,8-tetrahydro-4H-9-thia-1,4a-diaza-fluorene-3-carbonyl)-amino]-acetic acid] | 5 to 8
29 | CC(NC(=O)c1c(O)nc2sc3c(n2c1=O)CCC(C)(C)C3)C(=O)O (stereo not shown) [Compound 40, 2-[(2-Hydroxy-7,7-dimethyl-4-oxo-5,6,7,8-tetrahydro-4H-9-thia-1,4a-diaza-fluorene-3-carbonyl)-amino]-propionic acid] | 5 to 8
30 | CS(=O)(=O)c1ccc(C(=O)N2CCc3c(sc4nc(O)c(C(=O)NCC(=O)O)c(=O)n34)C2)cc1 [Compound 42, {[2-Hydroxy-7-(4-methanesulfonyl-benzoyl)-4-oxo-5,6,7,8-tetrahydro-4H-9-thia-1,4a,7-triaza-fluorene-3-carbonyl]-amino}-acetic acid] | 5 to 8
31 | O=C(O)CNC(=O)c1c(O)nc2sc3c(n2c1=O)CCN(S(=O)(=O)c1ccc(Cl)s1)C3 [Compound 17, {[7-(5-Chloro-thiophene-2-sulfonyl)-2-hydroxy-4-oxo-5,6,7,8-tetrahydro-4H-9-thia-1,4a,7-triaza-fluorene-3-carbonyl]-amino}-acetic acid] | 2 to 4
